According to US20170119833A1, “ACANTHOSPERMUM HISPIDUM COMPOSITION FOR THE TREATMENT OF CANCER AND METHODS FOR ITS MANUFACTURE” (priority 2014, published 2017):

How the values were obtained:
Assay type in all cases: in vivo, Swiss albino mice
DAL [1] = experiment: Dead cell count of DAL ascitic fluid in mice
Experimental: (§1) The extracts used were in the form of suspension with tween-20 (one part by volume) and distilled water (two parts by volume). The prepared extracts were also used for further studies. Animals used for studies were Swiss albino mice. Six experiments were carried for each plant extract.
(§2) After development of tumor the drug treatment was given on the 9th day and the 18th day post tumor inoculation. The peritoneal fluid was collected once on the 11th day and 20th day from each mouse and the following parameters were examined in antitumor assessment:
Ascitic fluid for cell cytology, specifically dead cell count and histopathology.
(§3) Statistical analysis: The data for anti-tumor activity was analyzed by one-way ANOVA followed by Dunnett's ‘t’ test. P<0.05 was considered statistically significant.

DAL [2] = experiment: Hematological parameters in DAL-bearing mice; details: 5-FU 12.5 mg/kg p.o., extracts 300 mg/kg p.o.
Experimental: The extracts used were in the form of suspension with tween-20 (one part by volume) and distilled water (two parts by volume). The prepared extracts were also used for further studies. Animals used for studies were Swiss albino mice. Six experiments were carried for each plant extract. After development of tumor the drug treatment was given on the 9th day and the 18th day post tumor inoculation. […] Hematological parameters, such as WBC, RBC, Hb, differential Leucocyte count; Statistical analysis: The data for anti-tumor activity was analyzed by one-way ANOVA followed by Dunnett's ‘t’ test. P<0.05 was considered statistically significant.

DAL [3] = experiment: Mean survival time (MST) in DAL-bearing mice
Experimental: as §1, §2
Mean Survival time (MST);
as §3

DAL [4] = experiment: Body weight (tumor volume) of DAL-bearing mice; details: for body weight: mean of six experiments
Experimental: as §1, §2
Body weight (tumor volume). All parameters were examined with standard procedures.

O=c1[nH]cc(F)c(=O)[nH]1 [5-FU, 5-Fluorouracil]
% of dead cells (DAL [1]; 11th day): 35% | % protection against tumor (DAL [1]; 11th day): 52% | % of dead cells (DAL [1]; 20th day): 51% | % protection against tumor (DAL [1]; 20th day): 54.54% | Hb g/dl ± SEM (DAL [2]; Day 11): 5.8 ± 0.98 g/dL | Lymphocytes ± SEM (DAL [2]; Day 11): 48 ± 0.41 | Monocytes (DAL [2]; Day 11): 2 | Neutrophils ± SEM (DAL [2]; Day 11): 56 ± 0.82 | RBC × 10^6 ± SEM (DAL [2]; Day 11): 2.20 ± 0.08 × 10^6 | Hb g/dl ± SEM (DAL [2]; Day 20): 7.2 ± 0.04 g/dL | Lymphocytes ± SEM (DAL [2]; Day 20): 54.98 ± 0.81 | Monocytes (DAL [2]; Day 20): 2 | Neutrophils ± SEM (DAL [2]; Day 20): 34.98 ± 0.03 | RBC × 10^6 ± SEM (DAL [2]; Day 20): 2.61 ± 0.03 × 10^6 | WBC ± SEM (DAL [2]; Day 20): 11,600 ± 2.03 | No. of Days Alive ± SEM (DAL [3]; DAL-bearing mice): 26 ± 0.24 days | Mean Survival time (%) (DAL [3]; tumor control (DAL) = 100): 110% | % increase in body weight on 20th day post-tumor inoculation (DAL [4]; 20th day post-tumor inoculation): 32.08% | body weight (DAL [4]; day 9 post tumor inoculation): 22.33 grams | body weight (DAL [4]; day 10 post tumor inoculation): 22.33 grams | body weight (DAL [4]; day 11 post tumor inoculation): 22.66 grams | body weight (DAL [4]; day 12 post tumor inoculation): 23 grams | body weight (DAL [4]; day 13 post tumor inoculation): 26.33 grams | body weight (DAL [4]; day 14 post tumor inoculation): 27 grams | body weight (DAL [4]; day 15 post tumor inoculation): 28.66 grams | body weight (DAL [4]; day 18 post tumor inoculation): 30 grams | body weight (DAL [4]; day 20 post tumor inoculation): 30 grams | body weight (DAL [4]; day 21 post tumor inoculation): 30 grams | body weight (DAL [4]; day 24 post tumor inoculation): 30 grams
